What was measured:
[1] = test system: rice seedlings; test: 4,5-dimethylthiazole root drenching: rice seedling dry matter mass and chlorophyll content; assay type: in vivo; conditions: for Root System Biomass / Shoot Part Biomass / Total Biomass / Total Chlorophyll Content: 30 days of seedling cultivation; for Total Chlorophyll Content: leaves; for Root System Relative Value / Shoot Part Relative Value / Total Chlorophyll Content Relative Value / Total Relative Value: 30 days, vs Control 0 mg/L
Protocol: Five root irrigation solution concentrations (0, 20, 50, 100 and 200 mg/L) and three types of root drenching frequency (2, 4, and 6 times) were set. 4,5-dimethylthiazole of different mass was dissolved in distilled water to obtain root irrigation solutions at different concentrations. After normal rice seed soaking and accelerated germination, rice substrate soil was loaded 2 cm away from a seedling tray opening, gently compacted, and watered with pure water to be wet. A rice seedling nursery substrate was “rice seedling nursery substrate” purchased from Guangzhou Shengsheng Agriculture Co., Ltd., with main ingredients including peat, vermiculite and yellow mud. Two seeds were sowed in each hole on a substrate surface, covered with the substrate soil again to the seedling tray opening, and watered to be wet. Three days after the rice seedling emergence, the root irrigation solutions at different concentrations was applied once every five days, until there was a water layer of 5 mm on a surface of the substrate. Each treatment was applied with a consistent amount. The drenching was conducted during cooler evening hours to minimize evaporation. After 30 days of seedling cultivation, nine rice samples were taken from each treatment, divided into shoot parts and root system, which were dried and then weighed; and leaves were taken from another nine rice plants to measure chlorophyll content.

[2] = test system: rice seedlings; test: 4,5-dimethylthiazole seed soaking: rice seedling dry matter mass and chlorophyll content; assay type: in vivo, rice (Heliangyou 332); conditions: for Root System Biomass / Shoot Part Biomass / Total Biomass / Total Chlorophyll Content: 30 days of seedling cultivation; for Total Chlorophyll Content: leaves; for Root System Relative Value / Shoot Part Relative Value / Total Chlorophyll Content Relative Value / Total Relative Value: 30 days, vs distilled water soaking
Protocol: 4,5-dimethylthiazole of different weights were dissolved in distilled water to obtain seed soaking agents. Taking seed soaking with distilled water as a control, four seed soaking concentrations (0, 50, 100 and 200 mg/L) were set. Plump and healthy rice seeds (Heliangyou 332) were selected and sterilized with 0.5% sodium hypochlorite for 30 min, and then each seed soaking agent was added in a mass ratio of the seed soaking agent to seed of 1:20. The seeds were soaked in darkness under 28-30° C. condition for 48 h until radicle emergence. The seed soaking solutions were changed every 12 h. Rice substrate soil was loaded 2 cm away from a seedling tray opening, gently compacted, and watered with pure water to be wet. A rice seedling nursery substrate was “rice seedling nursery substrate” purchased from Guangzhou Shengsheng Agriculture Co., Ltd., with main ingredients including peat, vermiculite and yellow mud. Two seeds were sowed in each hole on a substrate surface, covered with the substrate soil again to the seedling tray opening, and watered to be wet. After 30 days of seedling cultivation, nine rice samples were taken from each treatment, divided into shoot parts and root system, which were dried and then weighed; and leaves were taken from another nine rice plants to measure chlorophyll content. […] Regarding the biomass of the shoot parts and the chlorophyll content, the seed soaking concentration 50 mg/L rendered the best effect (Table 2).

[3] = root drenching 2 Times, 20 mg/L
[4] = root drenching 2 Times, 50 mg/L
[5] = root drenching 2 Times, 100 mg/L
[6] = root drenching 2 Times, 200 mg/L
[7] = root drenching 4 Times, 20 mg/L
[8] = root drenching 4 Times, 50 mg/L
[9] = root drenching 4 Times, 100 mg/L
[10] = root drenching 4 Times, 200 mg/L
[11] = root drenching 6 Times, 20 mg/L
[12] = root drenching 6 Times, 50 mg/L
[13] = root drenching 6 Times, 100 mg/L
[14] = root drenching 6 Times, 200 mg/L

Cc1ncsc1C [4,5-dimethylthiazole]
Root System Biomass [1, 3]: 7.5 mg/plant | Shoot Part Biomass [1, 3]: 82.9 mg/plant | Total Biomass [1, 3]: 90.4 mg/plant | Total Chlorophyll Content [1, 3]: 4.77 mg/g | Root System Relative Value [1, 3]: 36.8% | Shoot Part Relative Value [1, 3]: 35.9% | Total Chlorophyll Content Relative Value [1, 3]: 27.8% | Total Relative Value [1, 3]: 36.0% | Root System Biomass [1, 4]: 8.0 mg/plant | Shoot Part Biomass [1, 4]: 79.8 mg/plant | Total Biomass [1, 4]: 87.9 mg/plant | Total Chlorophyll Content [1, 4]: 4.29 mg/g | Root System Relative Value [1, 4]: 46.7% | Shoot Part Relative Value [1, 4]: 30.8% | Total Chlorophyll Content Relative Value [1, 4]: 15.0% | Total Relative Value [1, 4]: 32.1% | Root System Biomass [1, 5]: 8.3 mg/plant | Shoot Part Biomass [1, 5]: 76.3 mg/plant | Total Biomass [1, 5]: 84.6 mg/plant | Total Chlorophyll Content [1, 5]: 3.82 mg/g | Root System Relative Value [1, 5]: 52.2% | Shoot Part Relative Value [1, 5]: 25.0% | Total Chlorophyll Content Relative Value [1, 5]: 2.5% | Total Relative Value [1, 5]: 27.2% | Root System Biomass [1, 6]: 6.3 mg/plant | Shoot Part Biomass [1, 6]: 62.9 mg/plant | Total Biomass [1, 6]: 69.2 mg/plant | Total Chlorophyll Content [1, 6]: 4.51 mg/g | Root System Relative Value [1, 6]: 15.6% | Shoot Part Relative Value [1, 6]: 3.1% | Total Chlorophyll Content Relative Value [1, 6]: 20.8% | Total Relative Value [1, 6]: 4.1% | Root System Biomass [1, 7]: 7.0 mg/plant | Shoot Part Biomass [1, 7]: 74.5 mg/plant | Total Biomass [1, 7]: 81.5 mg/plant | Total Chlorophyll Content [1, 7]: 4.15 mg/g | Root System Relative Value [1, 7]: 27.7% | Shoot Part Relative Value [1, 7]: 22.1% | Total Chlorophyll Content Relative Value [1, 7]: 11.2% | Total Relative Value [1, 7]: 22.6% | Root System Biomass [1, 8]: 8.0 mg/plant | Shoot Part Biomass [1, 8]: 79.9 mg/plant | Total Biomass [1, 8]: 87.9 mg/plant | Total Chlorophyll Content [1, 8]: 4.09 mg/g | Root System Relative Value [1, 8]: 46.3% | Shoot Part Relative Value [1, 8]: 30.9% | Total Chlorophyll Content Relative Value [1, 8]: 9.8% | Total Relative Value [1, 8]: 32.2% | Root System Biomass [1, 9]: 7.7 mg/plant | Shoot Part Biomass [1, 9]: 79.6 mg/plant | Total Biomass [1, 9]: 87.3 mg/plant | Total Chlorophyll Content [1, 9]: 3.82 mg/g | Root System Relative Value [1, 9]: 41.6% | Shoot Part Relative Value [1, 9]: 30.4% | Total Chlorophyll Content Relative Value [1, 9]: 2.3% | Total Relative Value [1, 9]: 31.3% | Root System Biomass [1, 10]: 5.4 mg/plant | Shoot Part Biomass [1, 10]: 70.1 mg/plant | Total Biomass [1, 10]: 75.5 mg/plant | Total Chlorophyll Content [1, 10]: 3.89 mg/g | Root System Relative Value [1, 10]: −0.7% | Shoot Part Relative Value [1, 10]: 14.8% | Total Chlorophyll Content Relative Value [1, 10]: 4.2% | Total Relative Value [1, 10]: 13.6% | Root System Biomass [1, 11]: 8.6 mg/plant | Shoot Part Biomass [1, 11]: 82.7 mg/plant | Total Biomass [1, 11]: 91.3 mg/plant | Total Chlorophyll Content [1, 11]: 4.03 mg/g | Root System Relative Value [1, 11]: 51.8% | Shoot Part Relative Value [1, 11]: 35.4% | Total Chlorophyll Content Relative Value [1, 11]: 8.1% | Total Relative Value [1, 11]: 37.3% | Root System Biomass [1, 12]: 7.9 mg/plant | Shoot Part Biomass [1, 12]: 85.8 mg/plant | Total Biomass [1, 12]: 93.7 mg/plant | Total Chlorophyll Content [1, 12]: 4.32 mg/g | Root System Relative Value [1, 12]: 44.7% | Shoot Part Relative Value [1, 12]: 40.6% | Total Chlorophyll Content Relative Value [1, 12]: 15.9% | Total Relative Value [1, 12]: 41.0% | Root System Biomass [1, 13]: 7.1 mg/plant | Shoot Part Biomass [1, 13]: 74.7 mg/plant | Total Biomass [1, 13]: 81.8 mg/plant | Total Chlorophyll Content [1, 13]: 4.20 mg/g | Root System Relative Value [1, 13]: 30.2% | Shoot Part Relative Value [1, 13]: 22.4% | Total Chlorophyll Content Relative Value [1, 13]: 12.7% | Total Relative Value [1, 13]: 23.1% | Root System Biomass [1, 14]: 7.1 mg/plant | Shoot Part Biomass [1, 14]: 63.5 mg/plant | Total Biomass [1, 14]: 70.6 mg/plant | Total Chlorophyll Content [1, 14]: 3.79 mg/g | Root System Relative Value [1, 14]: 29.7% | Shoot Part Relative Value [1, 14]: 4.1% | Total Chlorophyll Content Relative Value [1, 14]: 1.6% | Total Relative Value [1, 14]: 6.2% | Root System Biomass ([2]; seed soaking 50 mg/L): 8.3 mg/plant | Shoot Part Biomass ([2]; seed soaking 50 mg/L): 80.7 mg/plant | Total Biomass ([2]; seed soaking 50 mg/L): 89.1 mg/plant | Total Chlorophyll Content ([2]; seed soaking 50 mg/L): 4.08 mg/g | Root System Relative Value ([2]; seed soaking 50 mg/L): 52.6% | Shoot Part Relative Value ([2]; seed soaking 50 mg/L): 32.3% | Total Chlorophyll Content Relative Value ([2]; seed soaking 50 mg/L): 9.3% | Total Relative Value ([2]; seed soaking 50 mg/L): 34.0% | Root System Biomass ([2]; seed soaking 100 mg/L): 8.6 mg/plant | Shoot Part Biomass ([2]; seed soaking 100 mg/L): 78.4 mg/plant | Total Biomass ([2]; seed soaking 100 mg/L): 87.1 mg/plant | Total Chlorophyll Content ([2]; seed soaking 100 mg/L): 3.98 mg/g | Root System Relative Value ([2]; seed soaking 100 mg/L): 58.2% | Shoot Part Relative Value ([2]; seed soaking 100 mg/L): 28.5% | Total Chlorophyll Content Relative Value ([2]; seed soaking 100 mg/L): 6.7% | Total Relative Value ([2]; seed soaking 100 mg/L): 31.0% | Root System Biomass ([2]; seed soaking 200 mg/L): 7.8 mg/plant | Shoot Part Biomass ([2]; seed soaking 200 mg/L): 81.1 mg/plant | Total Biomass ([2]; seed soaking 200 mg/L): 88.9 mg/plant | Total Chlorophyll Content ([2]; seed soaking 200 mg/L): 3.99 mg/g | Root System Relative Value ([2]; seed soaking 200 mg/L): 42.9% | Shoot Part Relative Value ([2]; seed soaking 200 mg/L): 32.9% | Total Chlorophyll Content Relative Value ([2]; seed soaking 200 mg/L): 7.0% | Total Relative Value ([2]; seed soaking 200 mg/L): 33.7% | effect on biomass of the shoot parts and chlorophyll content, comparison of seed soaking concentrations ([2]; seed soaking concentration 50 mg/L): best effect
